These results are taken from patent US20260297087A1, “Pyridoimidazolone Compounds, Preparation Thereof and Therapeutic Uses Thereof” (Sanofi, priority 2023, published 2026).

Assay [1] has as its target T1, ERK5 (activated catalytic domain) (Homo sapiens, UniProt Q13164).
T1 construct: purchased CarnaBiosciences 04-146
As to the kind of experiment: Cell-Free Assay of ERK5 Inhibition (Time-Resolved FRET, 4EBP1 peptide phosphorylation). It counts as biochemical. To be noted: ERK5 catalytic domain 4 nM, 1 mM ATP, 1 μM biotinylated 4EBP1 peptide, 30 min at 37° C.; mean where repeated; read-out: Cell-free assay (IC50 in nM). Here is the method: (§1) Two assays were performed to assess the ERK5 inhibitory activity of compounds of the Examples, a cell-based assay and a cell-free biochemical assay. Where repeat measurements were taken, the value reported is a mean average.
An assay was performed to measure the capacity of each compound to inhibit ERK5 enzymatic activity. Compound potency was evaluated by Time-Resolved Forster Resonance Energy Transfer (FRET system). The activated catalytic domain of protein ERK5 (CarnaBiosciences #04-146) was mixed at 4 nM with varying concentrations of compound and incubated for 30 minutes at room temperature. A mixture of 1 mM ATP and 1 μM biotinylated synthetic peptide was added (Biosyntan GmbH). This synthetic peptide represents amino acids 30-52 of Eukaryotic translation initiation factor 4E-binding protein 1 (see, e.g., the sequence under accession No. NP_004086.1) biotinylated at the N-terminus. After 30 minutes at 37° C., the peptide phosphorylation by ERK5 was measured by addition of FRET reagents consisting of 12.5 μg/ml Streptavidin-XL665, 1 nM Anti-P-4EBP1 antibody and 300 ng/ml Anti-rabbit-K antibody. Following 90 minutes at room temperature fluorescent signals were read on the Pherastar FSX multimod detector from BMG Labtech (Exc° 340 nm, Em1 620 nm, Em2 665 nm). The IC50 values represent the concentration of compound which inhibits the measurable fluorescence signal by 50% as compared to the DMSO only control.

Another assay addresses T2, ERK5 (Homo sapiens, UniProt Q13164).
T2 construct: MEF2-luciferase reporter
As to the kind of experiment: Inhibition of Cellular ERK5 Activity (cell-based assay, MEF2 luciferase reporter in SN12C cells). To be noted: renal cancer cell line SN12C, doxycycline-induced MEKSDD, mean where repeated. The method, then: as §1
The renal cancer cell line SN12C was transduced by a lentivirus pGreenFire1 MEF2 EF1 Neo (ref TR030VA-N) from SBI using standard infection protocol. pGreenFire1 MEF2 EF1 Neo allows the expression of luciferase gene under the control of minimal promoter with MEF2 transcriptional response elements. Cells harboring the reporter construct were selected by geneticin treatment. The selected cells were then transposed by a piggyback based plasmid pCM4007 allowing the expression of constitutively activated MEKSDD under control of TREG3 promoter, a doxycycline regulated promoter. Transposed cells were selected by puromycin treatment. Upon doxycycline treatment (1p g/ml) MEKSDD was expressed. MEKSDD activates ERK5 that phosphorylates MEF2C protein. Activated MEF2C protein can bind to its transcriptional response elements. Then the luciferase is expressed. In a 96-well plate (96F nuncleon refl37101 thermofisher), 50,000 cells were inoculated in 142.5 μl of RPMI medium containing 10% fetal calf serum, 1% glutamine, and 1 μg/ml doxycycline. After 24 hours, compounds were added in 7.5 μl culture medium (with 2% DMSO to give a final concentration of 0.1%) in order to obtain the desired concentration (0.3-1000 nM). The luciferase activity was measured using the Kit Bright Glo Luminescent Cell Assay Cat E2610 (Promega) according to the manufacturer's protocol. Luminescence was determined using 0.2 second reading/well using a Tecan SPARK. IC50 values were calculated using XLFIT5 for Microsoft Excel using method 205. The IC50 values represent the concentration of compound which inhibits the measurable luminescence signal by 50% as compared to DMSO-treated control cells.

T2 sequence (Q13164 whole entry): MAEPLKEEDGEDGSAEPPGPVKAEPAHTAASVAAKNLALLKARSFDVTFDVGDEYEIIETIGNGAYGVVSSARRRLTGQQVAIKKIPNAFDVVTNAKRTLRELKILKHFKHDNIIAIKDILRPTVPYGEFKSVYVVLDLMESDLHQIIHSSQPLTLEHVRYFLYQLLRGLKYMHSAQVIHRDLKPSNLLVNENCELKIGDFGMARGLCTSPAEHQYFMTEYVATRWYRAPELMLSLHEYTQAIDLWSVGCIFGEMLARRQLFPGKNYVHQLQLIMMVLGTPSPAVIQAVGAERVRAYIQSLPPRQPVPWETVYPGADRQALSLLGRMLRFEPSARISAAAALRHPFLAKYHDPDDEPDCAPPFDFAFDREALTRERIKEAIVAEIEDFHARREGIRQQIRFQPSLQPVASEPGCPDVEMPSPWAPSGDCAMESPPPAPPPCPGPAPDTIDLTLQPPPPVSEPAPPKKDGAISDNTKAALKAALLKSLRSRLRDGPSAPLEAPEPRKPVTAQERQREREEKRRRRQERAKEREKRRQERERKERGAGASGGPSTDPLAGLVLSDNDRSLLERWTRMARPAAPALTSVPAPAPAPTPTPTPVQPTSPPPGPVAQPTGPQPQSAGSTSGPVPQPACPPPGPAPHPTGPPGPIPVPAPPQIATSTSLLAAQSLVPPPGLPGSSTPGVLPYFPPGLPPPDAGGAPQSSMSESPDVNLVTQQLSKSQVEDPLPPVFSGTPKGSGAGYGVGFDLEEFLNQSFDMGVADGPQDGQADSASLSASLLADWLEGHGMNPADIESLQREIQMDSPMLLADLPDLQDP
T1 sequence (Q13164 55-347 limits assumed): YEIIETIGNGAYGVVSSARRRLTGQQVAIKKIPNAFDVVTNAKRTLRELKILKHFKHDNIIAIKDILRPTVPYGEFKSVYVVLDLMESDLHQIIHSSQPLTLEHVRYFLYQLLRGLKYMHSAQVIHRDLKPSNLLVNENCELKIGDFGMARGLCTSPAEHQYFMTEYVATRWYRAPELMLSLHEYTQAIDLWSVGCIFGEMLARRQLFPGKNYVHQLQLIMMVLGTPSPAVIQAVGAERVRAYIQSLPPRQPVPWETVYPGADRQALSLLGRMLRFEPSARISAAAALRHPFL

In general, IC50 refers to the concentration that gives 50% inhibition. As for `CN1CCC(Oc2cnc3[nH]c(=O)n(C4CCN(C(=O)c5ccc(OC(F)(F)F)cc5)CC4)c3c2)C1` (racemic) [Example 9, (rac)-6-(1-methylpyrrolidin-3-yl)oxy-1-[1-[4-(trifluoromethoxy)benzoyl]-4-piperidyl]-3H-imidazo[4,5-b]pyridin-2-one], the IC50 was determined as 287 nM in assay [1] and 413 nM against ERK5.

On to `CC(C)(C)OC(=O)Nc1cc(OC(F)(F)F)ccc1C(=O)N1CCC(n2c(=O)[nH]c3ncc(Br)cc32)CC1` [Example 59, tert-butyl N-[2-[4-(6-bromo-2-oxo-3H-imidazo[4,5-b]pyridin-1-yl)piperidine-1-carbonyl]-5-(trifluoromethoxy)phenyl]carbamate], for which the IC50 in assay [1] was 30000 nM; against ERK5, 2150 nM.

As for `Nc1cc(OC(F)(F)F)ccc1C(=O)N1CCC(n2c(=O)[nH]c3ncc(OC4CCOC4)cc32)CC1` (racemic) [Example 55, (rac)-1-[1-[2-amino-4-(trifluoromethoxy)benzoyl]-4-piperidyl]-6-[tetrahydrofuran-3-yl]oxy-3H-imidazo[4,5-b]pyridin-2-one], the IC50 in assay [1] amounted to 87 nM; at ERK5, 83 nM.

As to `CN1CCC(Oc2cnc3[nH]c(=O)n(C4CCN(C(=O)c5ccc(OC(F)(F)F)cc5)CC4)c3c2)CC1` [Example 5, 6-[(1-methyl-4-piperidyl)oxy]-1-[1-[4-(trifluoromethoxy)benzoyl]-4-piperidyl]-3H-imidazo[4,5-b]pyridin-2-one], the half-maximal inhibitory concentration (IC50) turned out to be 150 nM in assay [1] and 206 nM at ERK5.

Consider `Nc1cc(OC(F)(F)F)ccc1C(=O)N1CCC(n2c(=O)[nH]c3ncc(OC4CCOC4)cc32)CC1` (single isomer, unassigned; isomer 1) [Example 43, 1-[1-[2-amino-4-(trifluoromethoxy)benzoyl]-4-piperidyl]-6-[tetrahydrofuran-3-yl]oxy-3H-imidazo[4,5-b]pyridin-2-one, Isomer 1], for which the IC50 stood at 150 nM in assay [1] and 74 nM against ERK5.

Consider `O=C(c1ccc(OC(F)(F)F)cc1)N1CCC(n2c(=O)[nH]c3ncc(C4CCCC4)cc32)CC1` [Example 17, 6-Cyclopentyl-1-[1-[4-(trifluoromethoxy)benzoyl]-4-piperidyl]-3H-imidazo[4,5-b]pyridin-2-one], for which the IC50 in assay [1] amounted to 198 nM; at ERK5, 178 nM.

Regarding `Nc1cc(OC(F)(F)F)ccc1C(=O)N1CCC(n2c(=O)[nH]c3ncc(C45CC(C(F)F)(C4)C5)cc32)CC1` [Example 33, 1-[1-[2-amino-4-(trifluoromethoxy)benzoyl]-4-piperidyl]-6-[3-(difluoromethyl)-1-bicyclo[1.1.1]pentanyl]-3H-imidazo[4,5-b]pyridin-2-one], the IC50 in assay [1] was found to be 376 nM; against ERK5 it was 124 nM.

As for `Nc1cc(OC(F)(F)F)ccc1C(=O)N1CCC(n2c(=O)[nH]c3ncc(N4CCOCC4)cc32)CC1` [Example 3, 1-[1-[2-amino-4-(trifluoromethoxy)benzoyl]-4-piperidyl]-6-N-morpholino-3H-imidazo[4,5-b]pyridin-2-one], the IC50 in assay [1] is 77 nM; against ERK5 it was 72 nM.

As to `O=C(c1ccc(OC(F)(F)F)cc1)N1CCC(n2c(=O)[nH]c3ncc(C4CCOC4)cc32)CC1` (racemic) [Example 15, (rac)-6-Tetrahydrofuran-3-yl-1-[1-[4-(trifluoromethoxy)benzoyl]-4-piperidyl]-3H-imidazo[4,5-b]pyridin-2-one], the IC50 in assay [1] worked out at 203 nM; against ERK5, 282 nM.

On to `Nc1cc(OC(F)(F)F)ccc1C(=O)N1CCC(n2c(=O)[nH]c3ncc(C4CCN(CC(F)(F)F)CC4)cc32)CC1` [Example 53, 1-[1-[2-amino-4-(trifluoromethoxy)benzoyl]-4-piperidyl]-6-[1-(2,2,2-trifluoroethyl)-4-piperidyl]-3H-imidazo[4,5-b]pyridin-2-one], for which the IC50 in assay [1] stood at 405 nM; against ERK5, 184 nM.

With `CO[C@H]1CC[C@@H](c2cnc3[nH]c(=O)n(C4CCN(C(=O)c5ccc(OC(F)(F)F)cc5N)CC4)c3c2)CC1` [Example 46, cis-1-[1-[2-amino-4-(trifluoromethoxy)benzoyl]-4-piperidyl]-6-(4-methoxycyclohexyl)-3H-imidazo[4,5-b]pyridin-2-one], the IC50 is 643 nM in assay [1] and 199 nM against ERK5.

For `Nc1cc(OC(F)(F)F)ccc1C(=O)N1CCC(n2c(=O)[nH]c3ncc(C4CCCCC4)cc32)CC1` [Example 36, 1-[1-[2-amino-4-(trifluoromethoxy)benzoyl]-4-piperidyl]-6-cyclohexyl-3H-imidazo[4,5-b]pyridin-2-one], the IC50 in assay [1] came out at 888 nM; against ERK5 it was 285 nM.

For `O=C(c1ccc(OC(F)(F)F)cc1)N1CCC(n2c(=O)[nH]c3ncc(N4CCO[C@H](CO)C4)cc32)CC1` [Example 12, 6-[(2S)-2-(Hydroxymethyl)morpholin-4-yl]-1-[1-[4-(trifluoromethoxy)benzoyl]-4-piperidyl]-3H-imidazo[4,5-b]pyridin-2-one], the IC50 in assay [1] stood at 442 nM; at ERK5, 1860 nM.

As for `Nc1cc(S(F)(F)(F)(F)F)ccc1C(=O)N1CCC(n2c(=O)[nH]c3ncc(C4CCOCC4)cc32)CC1` [Example 14, 1-[1-[2-Amino-4-(pentafluoro-λ^6-sulfanyl)benzoyl]-4-piperidyl]-6-tetrahydropyran-4-yl-3H-imidazo[4,5-b]pyridin-2-one], the IC50 in assay [1] is 122 nM; on ERK5, 118 nM.

`Nc1cc(OC(F)(F)F)ccc1C(=O)N1CCC(n2c(=O)[nH]c3ncc(C45CCC(C4)C5)cc32)CC1` [Example 32, 1-[1-[2-amino-4-(trifluoromethoxy)benzoyl]-4-piperidyl]-6-(1-bicyclo[2.1.1]hexanyl)-3H-imidazo[4,5-b]pyridin-2-one]: the IC50 in assay [1] turned out to be 1140 nM; on ERK5 it was 347 nM.

In the case of `Nc1cc(OC(F)(F)F)ccc1C(=O)N1CCC(n2c(=O)[nH]c3ncc(N4CCO[C@H](CO)C4)cc32)CC1` [Example 10, 1-[1-[2-amino-4-(trifluoromethoxy)benzoyl]-4-piperidyl]-6-[(2S)-2-(hydroxymethyl)morpholin-4-yl]-3H-imidazo[4,5-b]pyridin-2-one], the IC50 is 103 nM in assay [1] and 870 nM against ERK5.

As to `O=C(c1ccc(OC(F)(F)F)cc1)N1CCC(n2c(=O)[nH]c3ncc(C4CCOCC4)cc32)CC1` [Example 41, 6-tetrahydropyran-4-yl-1-[1-[4-(trifluoromethoxy)benzoyl]-4-piperidyl]-3H-imidazo[4,5-b]pyridin-2-one], the IC50 came out at 557 nM in assay [1] and 152 nM against ERK5.

Turning to `Nc1cc(OC(F)(F)F)ccc1C(=O)N1CCC(n2c(=O)[nH]c3ncc(C4CCCO4)cc32)CC1` (racemic) [Example 25, (rac)-1-[1-[2-amino-4-(trifluoromethoxy)benzoyl]-4-piperidyl]-6-tetrahydrofuran-2-yl-3H-imidazo[4,5-b]pyridin-2-one], the IC50 was determined as 377 nM in assay [1] and 57 nM on ERK5.

Turning to `Nc1cc(OC(F)(F)F)ccc1C(=O)N1CCC(n2c(=O)[nH]c3ncc(N4CCO[C@@H](CO)C4)cc32)CC1` [Example 13, 1-[1-[2-Amino-4-(trifluoromethoxy)benzoyl]-4-piperidyl]-6-[(2R)-2-(hydroxymethyl)morpholin-4-yl]-3H-imidazo[4,5-b]pyridin-2-one], the IC50 came to 225 nM in assay [1] and 1330 nM at ERK5.

Turning to `Nc1cc(OC(F)(F)F)ccc1C(=O)N1CCC(n2c(=O)[nH]c3ncc(C45CC(C(F)(F)F)(C4)C5)cc32)CC1` [Example 30, 1-[1-[2-amino-4-(trifluoromethoxy)benzoyl]-4-piperidyl]-6-[3-(trifluoromethyl)-1-bicyclo[1.1.1]pentanyl]-3H-imidazo[4,5-b]pyridin-2-one], the IC50 was determined as 15300 nM in assay [1] and 310 nM at ERK5.

Take `O=C(c1ccc(OC(F)(F)F)cc1)N1CCC(n2c(=O)[nH]c3ncc(Br)cc32)CC1` [Example 60, 6-bromo-1-[1-[4-(trifluoromethoxy)benzoyl]-4-piperidyl]-3H-imidazo[4,5-b]pyridin-2-one]: the IC50 in assay [1] was 1080 nM; against ERK5, 641 nM.
